Test results taken from patent US20250250251A1, “PIPERIDINYLPYRIDINYLCARBONITRILE DERIVATIVES AS INHIBITORS OF GLUTAMINYL-PEPTIDE CYCLOTRANSFERASE AND GLUTAMINYL-PEPTIDE CYCLOTRANSFERASE LIKE PROTEIN” (Boehringer Ingelheim International GmbH, priority 2024, published 2025).

What was measured:
[1] = Assay C: permeability in CACO-2 cells; format: in vitro ADME; settings: human, pH 7.2, Table 7, compounds of the invention, CACO-2 cells; for efflux ratio: permeability B-A/permeability A-B, read-out: Efflux Ratio
Description: Caco-2 cells (1-2×10^5 cells/1 cm^2 area) are seeded on filter inserts (Costar transwell polycarbonate or PET filters, 0.4 μm pore size) and cultured (DMEM) for 10 to 25 days. Compounds are dissolved in appropriate solvent (like DMSO, 1-20 mM stock solutions). […] The transport solution (TL) is applied to the apical or basolateral donor side for measuring A-B or B-A permeability (3 filter replicates), respectively. Samples are collected at the start and end of experiment from the donor and at various time intervals for up to 2 hours also from the receiver side for concentration measurement by HPLC-MS/MS or scintillation counting. Sampled receiver volumes are replaced with fresh receiver solution.
Efflux ratio (ER)=permeability B−A/permeability A−B

[2] = system: SIRPα signalling induced by A549 cells; test: Assay B: SIRPα signalling assay using A549 cells; format: cell-based; settings: Homo sapiens, Table 4, compounds of the invention, read-out: Inhibition of SIRPα signalling induced by A549 cells: IC50
Description: Two cell types are independently used: the Raji cell line (lymphoblast-like human cell line derived from B lymphocytes from a Burkitt's lymphoma patient in 1963) and A549 cells (adenocarcinoma human alveolar basal epithelial cells).
Test compounds were dissolved in 100% DMSO and serially diluted into a white 384-well microtiter cell culture plate (PerkinElmer #60076780 in case of Raji assay; PDL-coated plates Greiner #781945 in case of A549 assay). 5000 Raji cells (ATCC #CC86) or 5000 A549 cells (ATCC #CCL-185) in Assay Complete Cell Plating reagent 30 (DiscoverX 93-0563R30B) were added per well. The assay plate was incubated for 48 h at 37° C., 95% humidity and 5% CO2. 15000 reporter cells (Jurkat PathHunter SIRPαV1, DiscoverX #93-1135C19) were added to each well, and the plate was incubated for 5 h at 37° C., 95% humidity and 5% CO2. Bioassay reagent 1 of the PathHunter Bioassay detection kit (DiscoverX 93-0001) was added to each well of the plate using a multichannel pipette followed by a 15 min incubation at room temperature. Afterwards bioassay reagent 2 was added followed by 60 min incubation at room temperature (incubation in the dark).
The analysis of the data was performed using the luminescence signal generated by beta-galactosidase in the PathHunter reporter cell line. The luminescence measurement was done using a Pherastar Multi-Mode Reader. Dose-response curves & IC50 data were calculated with 4-parameter sigmoidal dose response formula.

QPCTL = molecular target: T1, QPCTL (Homo sapiens, UniProt Q9NXS2); test: Assay A: biochemical QPCTL activity assay (MALDI-TOF MS, CD47 peptide substrate); settings: Table 2, compounds of the invention, read-out: Inhibition of QPCTL: IC50
T1 construct: made in house
T1 sequence (Q9NXS2 whole entry, species assumed): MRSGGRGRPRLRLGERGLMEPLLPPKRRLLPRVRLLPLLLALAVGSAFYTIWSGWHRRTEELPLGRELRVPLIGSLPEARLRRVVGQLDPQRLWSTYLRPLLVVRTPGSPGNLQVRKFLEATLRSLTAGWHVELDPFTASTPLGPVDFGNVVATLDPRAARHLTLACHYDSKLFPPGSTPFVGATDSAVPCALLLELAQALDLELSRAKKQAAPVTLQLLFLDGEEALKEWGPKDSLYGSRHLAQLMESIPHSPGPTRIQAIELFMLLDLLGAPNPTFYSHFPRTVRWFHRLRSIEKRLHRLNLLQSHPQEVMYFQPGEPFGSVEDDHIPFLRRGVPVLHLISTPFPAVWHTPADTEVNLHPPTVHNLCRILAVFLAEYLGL
Description: (§1) QPCT or QPCTL dependent conversion of N-terminal glutamine to pyroglutamate of CD47 was monitored via MALDI-TOF MS. Test compounds were dissolved in 100% DMSO and serially diluted into clear 1,536-well microtiter plates. Enzymatic reactions were set up in assay buffer containing 20 mM Tris pH 7.5, 0.1 mM TCEP, 0.01% BSA, and 0.001% Tween20. […] The plates were incubated for 10 min in a humidified incubator at 24° C. Subsequently, 2.5 μL of CD47 peptide substrate surrogate (^19[…]^33) was added to each well (final concentration: 10 μM for QPCTL/20 μM for QPCT). The plates were mixed for 30 sec at 1,000 rpm and subsequently incubated for 40 min in a humidified incubator at 24° C. […] The plates were sealed with an adhesive foil, mixed for 30 s at 1,000 rpm and stored at room temperature until preparation of the MALDI target plates. MALDI target plates were prepared as described previously. […] QPCT or QPCTL activity was monitored by calculating the ratio between product and internal standard signals followed by normalization to high (100% activity) and low (0% activity) controls. Determination of compound potencies was obtained by fitting the dose-response data to a four-parameter logistical equation.

murine hepatocytes = test: Assay E: stability in murine hepatocytes; format: in vitro ADME, mouse; settings: Table 12, compounds of the invention, 1 μM, 5% species serum
Description: The metabolic degradation of the test compound is assayed in a murine hepatocyte suspension.
Murine hepatocytes (typically cryopreserved) are incubated in an appropriate buffer system (e.g. Dulbecco's modified eagle medium plus 3.5 μg glucagon/500 mL, 2.5 mg insulin/500 mL and 3.75 mg/500 mL hydrocortison) containing 5% species serum.
Following a (typically) 30 min preincubation in an incubator (37° C., 10% CO2) 5 μl of test compound solution (80 μM; from 2 mM in DMSO stock solution diluted 1:25 with medium) are added into 395 μl hepatocyte suspension (cell density in the range 0.25-5 Mio cells/mL, typically 1 Mio cells/mL; final concentration of test compound 1 μM, final DMSO concentration 0.05%).
The cells are incubated for six hours (incubator, orbital shaker) and samples (25 μl) are taken at 0, 0.5, 1, 2, 4 and 6 hours. Samples are transferred into acetonitrile and pelleted by centrifugation (5 min). The supernatant is transferred to a new 96-deepwell plate, evaporated under nitrogen and resuspended.
Decline of parent compound is analyzed by HPLC-MS/MS
CLint is calculated as follows CL_[…]=Dose/AUC=(C0/CD)/(AUD+clast/k)×1000/60. C0: initial concentration in the incubation [μM], CD: cell density of vital cells [10e6 cells/mL], AUD: area under the data [μM×h], clast: concentration of last data point [μM], k: slope of the regression line for parent decline [h−1].
The calculated in vitro hepatic intrinsic clearance can be scaled up to the intrinsic in vivo hepatic Clearance and used to predict hepatic in vivo blood clearance (CL) by the use of a liver model (well stirred model).
[formula] [formula] [formula] • Hepatocellularity, mouse: 120×10e6 cells/g liver • Liver factor, mouse: 55 g/kg bodyweight • Blood flow, mouse: 90 ml/(min×kg)

CYP3A4 mRNA = test: Assay D: CYP induction screening assay in primary human hepatocytes; format: in vitro ADME; settings: Table 9, compounds of the invention, 48 h
Description: Cryopreserved plateable human hepatocytes (single donor. BioIVT) were thawed and plated in Collagen-I coated 96-well-plates at a cell density of 0.07 million cells per well.
After a 6 h attachment period, the seeding medium was replaced by serum-free William's medium E supplemented with Matrigel (0.25 mg/ml) and allowed to recover overnight. 24 h post-seeding, serum-free Williams E medium containing the test compound at a final concentration of […] and a final DMSO content of 0.1% and 0.1% DMSO (solvent-treated control), respectively, was added to predefined wells. Exposure solutions were renewed after 24 h.
After 48 h of treatment in total, the effect of the test compounds on CYP3A4 mRNA expression was assessed using the QuantiGene Plex Gene Expression Assay. Hepatocytes were lysed and total RNA was extracted using the QuantiGene Sample Processing Kit according to the instructions of the manufacturer.
mRNA quantification was conducted using a customized QuantiGene Plex Panel to analyse CYP3A4 and the housekeeper genes RPL32, EIF4E2 and GUSB according to the instructions of the manufacturer and measured on a Luminex™ instrument. Signal was reported as median fluorescence intensity (MFI), which is proportional to the number of target RNA molecules present in the sample.
For calculation of CYP3A4 mRNA induction, the signal for CYP3A4 was normalized against the geometric mean of the signal obtained for the housekeeper genes for hepatocytes exposed to test compounds in relation to solvent-treated samples according to the following equation: […]

[3] = system: SIRPα signalling induced by Raji cells; test: Assay B: SIRPα signalling assay using Raji cells; format: cell-based; settings: Homo sapiens, Table 4, compounds of the invention, read-out: Inhibition of SIRPα signalling induced by Raji cells: IC50
Description: Bioassay reagent 1 of the PathHunter Bioassay detection kit (DiscoverX 93-0001) was added to each well of the plate using a multichannel pipette followed by a 15 min incubation at room temperature. Afterwards bioassay reagent 2 was added followed by 60 min incubation at room temperature (incubation in the dark).
The analysis of the data was performed using the luminescence signal generated by beta-galactosidase in the PathHunter reporter cell line. The luminescence measurement was done using a Pherastar Multi-Mode Reader.

QPCT = molecular target: T2, QPCT (Homo sapiens, UniProt Q16769); test: Assay A: biochemical QPCT activity assay (MALDI-TOF MS, CD47 peptide substrate); settings: Table 2, compounds of the invention, read-out: Inhibition of QPCT: IC50
T2 construct: purchased Origine (OriGene) TP700028
T2 sequence (Q16769 29-361): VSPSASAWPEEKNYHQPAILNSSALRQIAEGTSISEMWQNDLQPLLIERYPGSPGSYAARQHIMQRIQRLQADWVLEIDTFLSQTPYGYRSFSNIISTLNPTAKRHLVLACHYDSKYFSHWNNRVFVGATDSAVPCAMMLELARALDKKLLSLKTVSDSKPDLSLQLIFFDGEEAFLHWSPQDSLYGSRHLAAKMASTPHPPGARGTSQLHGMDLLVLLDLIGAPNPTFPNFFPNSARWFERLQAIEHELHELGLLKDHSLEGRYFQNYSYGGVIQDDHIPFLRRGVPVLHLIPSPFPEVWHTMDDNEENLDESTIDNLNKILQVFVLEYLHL
Description: as §1

## Cn1cnnc1C1(F)CCN(c2c(C#N)cc(C(C)(F)F)nc2-c2cnc3nn(C(F)(F)F)cc3c2)CC1 [Example 3]
[1]
  Papp A→B: 11 ×10⁻⁶ cm/s
  efflux ratio: 6.4
[2]
  IC50: 7 nM
QPCTL
  IC50: 3 nM
Murine hepatocytes
  Mouse Hepatocyte Stability QH: <12%
CYP3A4 mRNA
  n-fold induction of CYP3A4 at 10 μM: 4.2 n-fold
[3]
  IC50: 10 nM
QPCT
  IC50: 3 nM

## Cc1cc(C#N)c(N2CCC(F)(c3nncn3C)CC2)c(-c2cnc3nn(C(F)(F)F)cc3c2)n1 [Example 5]
[1]
  Papp A→B: 3.3 ×10⁻⁶ cm/s
  efflux ratio: 13
[2]
  IC50: 6 nM
QPCTL
  IC50: 1 nM
Murine hepatocytes
  Mouse Hepatocyte Stability QH: 16%
CYP3A4 mRNA
  n-fold induction of CYP3A4 at 10 μM: 2.1 n-fold
[3]
  IC50: 31 nM
QPCT
  IC50: 3 nM

## Cn1cnnc1C1(F)CCN(c2c(C#N)cc(C3CC3(F)F)nc2-c2ccnnc2)CC1 (stereo not drawn) [Example 6]
[1]
  Papp A→B: 0.6 ×10⁻⁶ cm/s
  efflux ratio: 36.1
[2]
  IC50: 82 nM
QPCTL
  IC50: 2 nM
Murine hepatocytes
  Mouse Hepatocyte Stability QH: <12%
CYP3A4 mRNA
  n-fold induction of CYP3A4 at 10 μM: 0.6 n-fold
[3]
  IC50: 226 nM
QPCT
  IC50: 6 nM

## Cn1cnnc1C1(F)CCN(c2c(C#N)cc(C(C)(F)F)nc2-c2cnc3nn(C)c(C(F)(F)F)c3c2)CC1 [Example 9]
[1]
  Papp A→B: 14 ×10⁻⁶ cm/s
  efflux ratio: 6.4
[2]
  IC50: 14 nM
QPCTL
  IC50: 6 nM
Murine hepatocytes
  Mouse Hepatocyte Stability QH: 34%
CYP3A4 mRNA
  n-fold induction of CYP3A4 at 10 μM: 4.2 n-fold
[3]
  IC50: 83 nM
QPCT
  IC50: 5 nM

## Cn1cnnc1C1(F)CCN(c2c(C#N)cc(C(F)(F)F)nc2-c2cnc3nn(C)c(C(F)(F)F)c3c2)CC1 [Example 10]
[1]
  Papp A→B: 11 ×10⁻⁶ cm/s
  efflux ratio: 6.6
[2]
  IC50: 49 nM
QPCTL
  IC50: 8 nM
Murine hepatocytes
  Mouse Hepatocyte Stability QH: 53%
CYP3A4 mRNA
  n-fold induction of CYP3A4 at 10 μM: 5.2 n-fold
[3]
  IC50: 160 nM
QPCT
  IC50: 13 nM

## Cn1cnnc1C1(F)CCN(c2c(C#N)cc(C3CC3)nc2-c2cnc3nn(C)c(C(F)(F)F)c3c2)CC1 [Example 11]
[1]
  Papp A→B: 32 ×10⁻⁶ cm/s
  efflux ratio: 2.5
[2]
  IC50: 37 nM
QPCTL
  IC50: 3 nM
Murine hepatocytes
  Mouse Hepatocyte Stability QH: 32%
CYP3A4 mRNA
  n-fold induction of CYP3A4 at 10 μM: 5.0 n-fold
[3]
  IC50: 167 nM
QPCT
  IC50: 3 nM

## Cc1cc(-c2nc(C3CC3)cc(C#N)c2N2CCC(F)(c3nncn3C)CC2)cnn1 [Example 12]
[1]
  Papp A→B: 5.6 ×10⁻⁶ cm/s
  efflux ratio: 9.5
[2]
  IC50: 145 nM
QPCTL
  IC50: 16 nM
Murine hepatocytes
  Mouse Hepatocyte Stability QH: 21%
CYP3A4 mRNA
  n-fold induction of CYP3A4 at 10 μM: 4.1 n-fold
[3]
  IC50: 950 nM
QPCT
  IC50: 14 nM

## Cn1cnnc1C1(F)CCN(c2c(C#N)cc(C(F)(F)F)nc2-c2cnc3nn(C(C)(C)C)cc3c2C(F)F)CC1 [Example 15]
[1]
  Papp A→B: 7.6 ×10⁻⁶ cm/s
  efflux ratio: 10.9
[2]
  IC50: 1 nM
QPCTL
  IC50: 12 nM
Murine hepatocytes
  Mouse Hepatocyte Stability QH: <12%
CYP3A4 mRNA
  n-fold induction of CYP3A4 at 10 μM: 14.2 n-fold
[3]
  IC50: 3 nM
QPCT
  IC50: 9 nM

## Cc1nn(C)cc1-c1cc(C#N)c(N2CCC(F)(c3nncn3C)CC2)c(-c2cnc3nn(C(F)(F)F)cc3c2)n1 [Example 17]
[1]
  Papp A→B: 5.1 ×10⁻⁶ cm/s
  efflux ratio: 9.4
[2]
  IC50: 22 nM
QPCTL
  IC50: 2 nM
Murine hepatocytes
  Mouse Hepatocyte Stability QH: 18%
CYP3A4 mRNA
  n-fold induction of CYP3A4 at 10 μM: 3.0 n-fold
[3]
  IC50: 69 nM
QPCT
  IC50: 2 nM
